Test results from patent publication EP4768032A1, “RAGE-TARGETED RNAI AGENT AND PHARMACEUTICAL USE THEREOF” (Tuojie Biotech (Shanghai) Co., Ltd., priority 2023, dated 2025).

Tested on: human RAGE
Test: psiCHECK on-target activity at 9 concentration points in HEK293A cells, dual-luciferase reporter (Example 8)
Format: cell-based
Conditions: psiCHECK system, Table 9
Text: As used herein, the term "inhibit" is used interchangeably with "decrease", "silence", "down-regulate", "repress", and other similar terms, and includes any level of inhibition. Inhibition can be assessed in terms of a decrease in the absolute or relative level of one or more of these variables relative to a control level. The control level can be any type of control level used in the art, such as a pre-dose baseline level or a level determined from an untreated or control (e.g., buffer-only control or inert agent control) treated subject, cell, or sample. […] The inhibition rate of target gene expression can be measured using a Dual-Glo® Luciferase Assay System: the Firefly chemiluminescence value (Fir) and the Renilla chemiluminescence value (Ren) are each read, and the relative value Ratio = Ren/Fir is calculated. In the present disclosure, the ratio of the remaining mRNA expression level (or residual activity%) = Ratio (RNAi agent-treated group)/Ratio (RNAi agent-free control group), and the inhibition rate (%) = 100% - remaining mRNA expression level (%).
RNAi agents were subjected to an in vitro molecular-level simulation of on-target activity screening in HEK293A cells using 9 concentration gradients.
HEK293A cells were cultured at 37 °C with 5% CO2 in a DMEM high-glucose culture medium containing 10% fetal bovine serum. 24 h prior to transfection, the HEK293A cells were seeded into a 96-well plate at a density of 1 × 10^4 cells per well, with each well containing 100 µL of the culture medium.
The cells were co-transfected with the RNAi agents and corresponding plasmids using Lipofectamine2000 (ThermoFisher, 11668019) according to the instructions, with 0.3 µL of Lipofectamine2000 used per well. The amount of plasmids for transfection was 20 ng per well. For on-target sequence plasmids, a total of 9 concentration points were set for the RNAi agents; the highest concentration point final concentration was 20 nM, and a 3-fold serial dilution was performed to obtain 20.0000 nM, 6.6667 nM, 2.2222 nM, 0.7407 nM, 0.2469 nM, 0.0823 nM, 0.0274 nM, 0.0091 nM, and 0.0030 nM. 24 h after transfection, the on-target levels were determined using a Dual-Luciferase Reporter Assay System (Promega, E2940). Table 9. The IC50 activity of RNAi agents in a psiCHECK system

Row | Substance | IC50 [nM]
1 | TJR103633-TJ-16: RNAi agent containing targeting ligand I-14: SS strand SEQ ID NO: 21, AS strand SEQ ID NO: 47 (sense CUGUCAGCAUCAGCAUCAA; antisense UUGAUGCUGAUGCUGACAGCA; targeting ligand I-14 conjugated, modification pattern not given here) | 0.343
2 | TJR103634-TJ-16: RNAi agent containing targeting ligand I-14: SS strand SEQ ID NO: 22, AS strand SEQ ID NO: 48 (sense GACCAACUCUCUCCUGUAA; antisense UUACAGGAGAGAGUUGGUCUG; targeting ligand I-14 conjugated, modification pattern not given here) | 0.378
3 | TJR103635-TJ-16: RNAi agent containing targeting ligand I-14: SS strand SEQ ID NO: 23, AS strand SEQ ID NO: 49 (sense AGAGGAGGAGCGUGCAGAA; antisense UUCUGCACGCUCCUCCUCUUC; targeting ligand I-14 conjugated, modification pattern not given here) | 0.636
4 | TJR103636-TJ-16: RNAi agent containing targeting ligand I-14: SS strand SEQ ID NO: 24, AS strand SEQ ID NO: 50 (sense CAGUCGGAGCUAAUGGUGA; antisense UCACCAUUAGCUCCGACUGCA; targeting ligand I-14 conjugated, modification pattern not given here) | 0.287
5 | TJR103637-TJ-16: RNAi agent containing targeting ligand I-14: SS strand SEQ ID NO: 25, AS strand SEQ ID NO: 51 (sense CUUUUCUUUUUCCCUUGAA; antisense UUCAAGGGAAAAAGAAAAGGG; targeting ligand I-14 conjugated, modification pattern not given here) | 0.83
6 | TJR103638-TJ-16: RNAi agent containing targeting ligand I-14: SS strand SEQ ID NO: 26, AS strand SEQ ID NO: 52 (sense CCUUUUCUUUUUCCCUUGA; antisense UCAAGGGAAAAAGAAAAGGGA; targeting ligand I-14 conjugated, modification pattern not given here) | 0.973
